“And” between values parts separate entries of the source, which are not always exact repeats. Equal entries are not always repeated. Where two headings read alike, the source gives them in different places.
Key:
human thrombin = molecular target: T1, human thrombin (Homo sapiens, UniProt P00734); test: Protease inhibitory assay, chromogenic substrate S-2238; format: biochemical; settings: for vinit: replicate values; for Ki: Thrombin, one of two values averaged in Supplementary Data 1, read-out: Ki
T1 construct: human thrombin; purchased Sigma-Aldrich

bovine factor Xa = molecular target: T2, bovine factor Xa (Bos taurus, UniProt P00743); test: Protease inhibitory assay, chromogenic substrate S-2222; format: biochemical; settings: cmpd conc 200 µM; for vinit: replicate values; for Ki: FactorXa, one of two values averaged in Supplementary Data 1, read-out: Ki
T2 construct: bovine factor Xa, Chromogenix, 2 nkat/mL; purchased Chromogenix

[1] = Thrombin primary screening, substrate 40 µM, cmpd conc 500 µM
[2] = FactorXa primary screening, substrate 100 µM
[3] = FactorXa Ki determination, substrate 100 µM
[4] = FactorXa Ki determination, substrate 200 µM
[5] = Thrombin Ki determination, substrate 20 µM, cmpd conc 200 µM
[6] = Thrombin Ki determination, substrate 40 µM, cmpd conc 200 µM
[7] = substrate 20 µM, cmpd conc 200 µM
[8] = substrate 40 µM, cmpd conc 200 µM

T2 sequence (P00743 234-492 limits assumed): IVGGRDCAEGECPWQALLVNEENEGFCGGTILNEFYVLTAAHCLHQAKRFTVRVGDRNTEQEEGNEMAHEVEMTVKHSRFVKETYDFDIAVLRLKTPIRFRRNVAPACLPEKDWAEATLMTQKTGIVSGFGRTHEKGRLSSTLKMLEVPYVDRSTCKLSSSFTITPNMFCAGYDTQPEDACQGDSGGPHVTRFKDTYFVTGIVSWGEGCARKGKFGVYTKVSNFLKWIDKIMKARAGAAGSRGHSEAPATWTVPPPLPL
T2 sequence (P00743 41-180 partner limits assumed): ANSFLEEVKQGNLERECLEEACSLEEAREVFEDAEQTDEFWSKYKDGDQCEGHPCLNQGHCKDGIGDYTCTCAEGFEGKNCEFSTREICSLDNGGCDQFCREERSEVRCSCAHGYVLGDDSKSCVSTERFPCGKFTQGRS

Compound	V0 / Vi (human thrombin; [1])	vinit (human thrombin; [1])	V0 / Vi (bovine factor Xa; [2])	vinit (bovine factor Xa; [2])	further results
Brc1ccc(-c2ccon2)cc1 [SX-A9]	0.98	30.873 and 32.327	0.98	19.055 and 17.6	
COc1ccccc1CC1CCNCC1.Cl [SX-B12]	0.97	32.327 and 32.218	1.35	10.3 and 11.164	V0 / Vi (bovine factor Xa; [3]): 1.28; vinit, avrg. (bovine factor Xa; [3]): 12.727; vinit (bovine factor Xa; [3]): 13.1265 and 12.596 and 12.46; V0 / Vi (bovine factor Xa; [4]): 1.25; vinit (bovine factor Xa; [4]): 26.514 and 31.33 and 29.51; Ki (bovine factor Xa; substrate 100 µM): 445 µM; Ki (bovine factor Xa; substrate 200 µM): 357 µM
O=C1CC(CSc2ccc(Cl)cc2)=NN1 [SX-H8]	0.97	33.5 and 31.286	0.99	15.686 and 16.6	
CC(=O)c1sc(-c2ccc(O)cc2)nc1C [SX-E1]	1.10	25.309 and 28	1.17	15.455 and 14.545	V0 / Vi (human thrombin; [5]): 1.09; vinit, avrg. (human thrombin; [5]): 24.296; vinit (human thrombin; [5]): 24.026 and 25.131 and 23.73; V0 / Vi (human thrombin; [6]): 1.06; vinit, avrg. (human thrombin; [6]): 31.885; vinit (human thrombin; [6]): 32.585 and 30.957 and 32.11; Ki (human thrombin; [7]): 251 µM; Ki (human thrombin; [8]): 207 µM; V0 / Vi (bovine factor Xa; [3]): 1.16; vinit, avrg. (bovine factor Xa; [3]): 14.048; vinit (bovine factor Xa; [3]): 13.804 and 13.836 and 14.50; V0 / Vi (bovine factor Xa; [4]): 1.13; vinit (bovine factor Xa; [4]): 32.734 and 31.114 and 32.88; Ki (bovine factor Xa; substrate 100 µM): 781 µM; Ki (bovine factor Xa; substrate 200 µM): 687 µM
c1ccc(Nc2nncs2)cc1 [SX-D8]	0.99	30.873 and 31.527	1.17	15.418 and 15.164	V0 / Vi (bovine factor Xa; [3]): 1.15; vinit, avrg. (bovine factor Xa; [3]): 14.126; vinit (bovine factor Xa; [3]): 15.1223 and 13.77 and 13.49; V0 / Vi (bovine factor Xa; [4]): 1.14; vinit (bovine factor Xa; [4]): 30.094 and 32.958 and 33.09; Ki (bovine factor Xa; substrate 100 µM): 814 µM; Ki (bovine factor Xa; substrate 200 µM): 652 µM
O=C(O)CC1CCC(=O)N1 (stereo not shown) [SX-H2]	1.12	30.691 and 28	1.01	17.5 and 16.3	
Cn1c(N)nc2ccccc21 [SX-A6]	0.93	31.891 and 32.182	1.45	10.544 and 13.214	V0 / Vi (bovine factor Xa; [3]): 1.48; vinit, avrg. (bovine factor Xa; [3]): 10.970; vinit (bovine factor Xa; [3]): 10.624 and 11.848 and 10.44; V0 / Vi (bovine factor Xa; [4]): 1.30; vinit (bovine factor Xa; [4]): 28.578 and 28.05 and 27.32; Ki (bovine factor Xa; substrate 100 µM): 257 µM; Ki (bovine factor Xa; substrate 200 µM): 297 µM
Nc1ccc(SC(F)F)cc1 [SX-D1]	1.00	28.182 and 30.8	0.99	18.218 and 17.091	
NC(=O)N1CCC(C(=O)O)CC1 [SX-D12]	1.12	28.036 and 28.145	1.16	11.2 and 13.7	V0 / Vi (human thrombin; [5]): 1.08; vinit, avrg. (human thrombin; [5]): 24.461; vinit (human thrombin; [5]): 23.803 and 25.267 and 24.313; V0 / Vi (human thrombin; [6]): 1.04; vinit, avrg. (human thrombin; [6]): 32.560; vinit (human thrombin; [6]): 34.041 and 32.608 and 31.031; Ki (human thrombin; [7]): 273 µM; Ki (human thrombin; [8]): 329 µM
O=C(NC1CC1)c1ccccc1O [SX-G4]	1.01	31.745 and 33.345	0.96	17.5 and 17.8	
Oc1nnc(-c2ccccc2)o1 [SX-F7]	0.99	31.527 and 31.273	1.07	16.182 and 17.345	
Nc1ccc(-c2ccccc2)cc1C(=O)O [SX-G9]	1.08	29.309 and 31.745	1.04	16.3	
O=c1ccc2c([nH]1)CCCC2 [SX-C5]	1.00	30.182 and 29.673	1.05	16.714 and 16	
c1ccc2oc(C3CCCNC3)nc2c1 (stereo not shown) [SX-D10]	0.92	35.091 and 33.236	0.95	15 and 15.3	
CN1CC(=O)NC1=O [SX-B10]	0.98	32.909 and 30.982	0.98	14 and 15.6	
O=C1CNCCN1c1ccccc1 [SX-B2]	1.05	28.909 and 27.2	1.00	17.273 and 17.782	
CN(C)c1cc(CN)ccn1 [SX-G3]	0.92	35.564 and 35.891	0.93	17.9 and 18.5	
CCc1nccn1CC(=O)O [SX-G11]	1.02	32.764 and 31.636	1.08	16.214 and 15.4	
C1=C[C@H]2O[C@@H]1c1ccccc12 [SX-C11]	0.96	33.564 and 31.964	0.94	15.415 and 15.185	
COC(=O)c1c(C)nc(C2CC2)[nH]c1=O [SX-F1]	1.06	25.964 and 29.418	0.96	17.6 and 18.945	
O=C(O)c1ccc(CN2CCOCC2)cc1 [SX-H1]	1.07	31.127 and 30.255	0.98	17.6 and 17	

Compound	V0 / Vi (human thrombin; [1])	vinit (human thrombin; [1])	V0 / Vi (bovine factor Xa; [2])	vinit (bovine factor Xa; [2])	further results
CC1C(=O)NC(=O)N1c1ccc(Cl)cc1 (stereo not shown) [SX-E3]	0.98	29.964 and 29.673	1.01	17.673 and 16.982	
c1cnc2ncccc2c1 [SX-A3]	1.00	28.545 and 30.364	0.96	18.873 and 17.673	
N[C@H]1c2ccccc2C[C@H]1CO [SX-B5]	0.98	32.873 and 28.182	0.91	18.071 and 19.643	
O=C(CN1CCNCC1)c1ccccc1 [SX-E5]	1.06	28.618 and 27.418	0.97	18.286 and 17.357	
COc1ccc(C2=CCNCC2)cc1 [SX-G1]	1.03	31.055 and 32.691	0.93	19.4 and 17.2	
O=C(c1ccncc1)N1CCNCC1 [SX-E2]	0.93	31.236 and 31.673	0.96	17.673 and 18.8	
CC(=O)c1ccc2c(c1)CCCN2 [SX-C7]	0.96	32.218 and 32.109	1.02	17.382 and 17.673	
O=C(c1ccccc1)N1CCC(CO)CC1 [SX-H9]	1.03	31.714 and 29.571	0.93	17.7 and 16.5	
COc1cccc(NC2=NCCCCC2)c1 [SX-E8]	0.88	35.818 and 34.764	0.96	18.764 and 18.473	
Cc1cc(N)no1 [SX-B11]	1.00	30.982 and 31.927	0.97	13.08 and 16.72	
Cn1c(CO)nc2ccccc21 [SX-G2]	1.00	32.764 and 33.018	0.96	18 and 17.3	
c1ccc(-c2ccncc2)cc1 [SX-C2]	0.98	30.473 and 29.273	1.01	16.764 and 18	
NC(c1ccccc1)c1ccccc1 [SX-C3]	1.07	27.818 and 27.309	0.95	19.527 and 17.564	
Cn1nc(C(F)(F)F)cc1O [SX-H6]	1.11	29.345 and 30.109	1.13	14.3 and 15.9	
CS(=O)(=O)c1ccc(OC(F)(F)F)cc1 [SX-B8]	0.99	31.709 and 31.2	0.94	20.109 and 18.073	
O=C(CN1CCCC1)c1ccccc1Cl [SX-G10]	0.99	33.345 and 33.273	1.00	17.7 and 16.3	
O=C(O)C1CCN(c2ncccn2)CC1 [SX-E9]	1.21	27.382 and 24	1.08	16.073 and 17.018	V0 / Vi (human thrombin; [5]): 1.35; vinit, avrg. (human thrombin; [5]): 19.600; vinit (human thrombin; [5]): 19.72 and 18.944 and 20.14; V0 / Vi (human thrombin; [6]): 1.14; vinit, avrg. (human thrombin; [6]): 29.629; vinit (human thrombin; [6]): 27.932 and 30.186 and 30.77; Ki (human thrombin; [7]): 65 µM; Ki (human thrombin; [8]): 87 µM
O=C(Nc1ccccc1)C1CC1 [SX-F6]	0.98	29.527 and 31.309	0.98	18 and 17.071	
Clc1ccc2nnnn2n1 [SX-E6]	0.99	32.073 and 28.473	1.12	15.357 and 15.429	
Cc1nccn1Cc1cccc(C#N)c1 [SX-F8]	0.91	34 and 33.891	0.98	18.582 and 18	
CCn1cnc2ccccc21 [SX-D4]	0.98	30.291	1.03	16.929 and 16.571	

— PMC8159961, “Exploring protein hotspots by optimized fragment pharmacophores” (Nature Communications, 2021)
